In publication PMC6539891, “Indole-Based Hydrazones Containing A Sulfonamide Moiety as Selective Inhibitors of Tumor-Associated Human Carbonic Anhydrase Isoforms IX and XII” (International Journal of Molecular Sciences, 2019):

What was measured:
[1] = target: T1, hCA II (Homo sapiens, UniProt P00918); assay: stopped-flow CO2 hydration assay; format: biochemical
T1 construct: gene CA2; recombinant from E. coli; cytosolic isoform
Text: stopped-flow CO2 hydration assay on hCA II

[2] = target: T2, hCA IX (Homo sapiens, UniProt Q16790); assay: stopped-flow CO2 hydration assay; format: biochemical; details: read-out: KI^* (nM) / hCAIX
T2 construct: gene CA9; recombinant from E. coli; transmembrane isoform with extracellular catalytic domain
Text: stopped-flow CO2 hydration assay on hCA IX

[3] = target: T3, hCA XII (Homo sapiens, UniProt O43570); assay: stopped-flow CO2 hydration assay; format: biochemical
T3 construct: gene CA12; recombinant from E. coli; transmembrane isoform with extracellular catalytic domain
T3 sequence (O43570 30-289 limits assumed): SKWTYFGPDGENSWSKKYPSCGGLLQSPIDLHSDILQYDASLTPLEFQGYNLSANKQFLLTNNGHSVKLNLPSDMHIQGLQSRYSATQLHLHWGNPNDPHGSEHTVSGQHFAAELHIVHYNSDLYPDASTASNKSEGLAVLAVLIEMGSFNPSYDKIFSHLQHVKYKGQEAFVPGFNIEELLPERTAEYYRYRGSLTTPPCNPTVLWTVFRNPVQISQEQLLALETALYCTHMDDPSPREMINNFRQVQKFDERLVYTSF
Text: stopped-flow CO2 hydration assay on hCA XII

[4] = target: T4, hCA I (Homo sapiens, UniProt P00915); assay: stopped-flow CO2 hydration assay; format: biochemical
T4 construct: gene CA1; recombinant from E. coli; cytosolic isoform
T4 sequence (P00915 2-261): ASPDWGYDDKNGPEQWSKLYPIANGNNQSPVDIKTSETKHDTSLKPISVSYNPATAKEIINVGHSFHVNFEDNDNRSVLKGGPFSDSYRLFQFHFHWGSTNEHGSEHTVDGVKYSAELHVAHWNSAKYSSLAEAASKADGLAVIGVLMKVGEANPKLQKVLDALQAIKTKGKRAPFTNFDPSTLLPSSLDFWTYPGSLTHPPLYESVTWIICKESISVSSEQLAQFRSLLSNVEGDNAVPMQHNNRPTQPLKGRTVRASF
Text: stopped-flow CO2 hydration assay on hCA I

[5] = stopped-flow CO2 hydration assay; format: biochemical, Homo sapiens; details: read-out: KI^* (nM) / hCA I

Structure (SMILES) | Ki [1] [nM] | Ki [2] [nM] | Ki [3] [nM] | Ki [4] [nM] | Ki [5] [nM]
NS(=O)(=O)c1ccc2[nH]c(C(=O)NN=Cc3cccs3)c(-c3ccccc3)c2c1 [compound 4, 3-Phenyl-2-{[2-(thiophene-2-ylmethylidene)hydrazinyl]carbonyl}-1H-indole-5-sulfonamide] | > 10000 | 47.4 | 4.5 | 6670 | 
NS(=O)(=O)c1ccc2[nH]c(C(=O)NN=Cc3ccc(Br)s3)c(-c3ccccc3)c2c1 [compound 5, 2-({2-[(5-Bromothiophene-2-yl)methylidene]hydrazinyl}carbonyl)-3-phenyl-1H-indole-5-sulfonamide] | > 10000 | 48.4 | 75.1 | 9410 | 
Cn1cccc1C=NNC(=O)c1[nH]c2ccc(S(N)(=O)=O)cc2c1-c1ccccc1 [compound 6, 2-({2-[(1-Methyl-1H-pyrrol-2-yl)methylidene]hydrazinyl}carbonyl)-3-phenyl-1H-indole-5-sulfonamide] | > 10000 | 44.3 | 64.4 | 9570 | 
NS(=O)(=O)c1ccc2[nH]c(C(=O)NN=Cc3cccnc3)c(-c3ccccc3)c2c1 [compound 7, 3-Phenyl-2-{[2-(pyridine-3-ylmethylidene)hydrazinyl]carbonyl}-1H-indole-5-sulfonamide] | 8910 | 35.8 | 1.4 | 8590 | 
NS(=O)(=O)c1ccc2[nH]c(C(=O)NN=Cc3ccncc3)c(-c3ccccc3)c2c1 [compound 8, 3-Phenyl-2-{[2-(pyridine-4-ylmethylidene)hydrazinyl]carbonyl}-1H-indole-5-sulfonamide] | 3490 | 15.8 | 6.6 | 3130 | 
NS(=O)(=O)c1ccc2[nH]c(C(=O)NN=Cc3c[nH]c4ccccc34)c(-c3ccccc3)c2c1 [compound 9, 3-Phenyl-2-{[2-(1H-indole-3-ylmethylidene)hydrazinyl]carbonyl}-1H-indole-5-sulfonamide] |  | 207 | 77.3 | > 10000 | > 10000
C=NNC(=O)c1[nH]c2ccc(S(N)(=O)=O)cc2c1-c1ccccc1 [compound 10, 2-[(2-Methylidenehydrazinyl)carbonyl]-3-phenyl-1H-indole-5-sulfonamide] | 9370 | 32.9 | 23.8 | 7480 | 
CC=NNC(=O)c1[nH]c2ccc(S(N)(=O)=O)cc2c1-c1ccccc1 [compound 11, 2-[(2-Ethylidenehydrazinyl)carbonyl]-3-phenyl-1H-indole-5-sulfonamide] | 5870 | 12.9 | 62.6 | 4060 | 
CC(C)=NNC(=O)c1[nH]c2ccc(S(N)(=O)=O)cc2c1-c1ccccc1 [compound 12, 3-Phenyl-2-{[2-(propan-2-ylidene)hydrazinyl]carbonyl}-1H-indole-5-sulfonamide] | 8500 | 47.9 | 87.9 | 9560 | 
CCC(C)=NNC(=O)c1[nH]c2ccc(S(N)(=O)=O)cc2c1-c1ccccc1 [compound 13, 2-{[2-(Butan-2-ylidene)hydrazinyl]carbonyl}-3-phenyl-1H-indole-5-sulfonamide] | 8030 | 42.1 | 92.4 | 9620 | 
CCC(CC)=NNC(=O)c1[nH]c2ccc(S(N)(=O)=O)cc2c1-c1ccccc1 [compound 14, 2-{[2-(Pentan-3-ylidene)hydrazinyl]carbonyl}-3-phenyl-1H-indole-5-sulfonamide] | 6620 | 43.7 | 9.4 | 9250 | 
CC(CC(C)C)=NNC(=O)c1[nH]c2ccc(S(N)(=O)=O)cc2c1-c1ccccc1 [compound 15, 2-{[2-(4-Methylpentan-2-ylidene)hydrazinyl]carbonyl}-3-phenyl-1H-indole-5-sulfonamide] | 6560 | 188 | 27.9 | 8650 | 
NS(=O)(=O)c1ccc2[nH]c(C(=O)NN=C3CCCC3)c(-c3ccccc3)c2c1 [compound 16, 2-[(2-Cyclopentylidenehydrazinyl)carbonyl]-3-phenyl-1H-indole-5-sulfonamide] | 5960 | 476 | 97.2 | > 10000 | 
NS(=O)(=O)c1ccc2[nH]c(C(=O)NN=C3CCCCC3)c(-c3ccccc3)c2c1 [compound 17, 2-[(2-Cyclohexylidenehydrazinyl)carbonyl]-3-phenyl-1H-indole-5-sulfonamide] | 5870 | 191 | 86.2 | > 10000 | 
CC1CCC(=NNC(=O)c2[nH]c3ccc(S(N)(=O)=O)cc3c2-c2ccccc2)CC1 (stereo not drawn) [compound 18, 2-{[2-(4-Methylcyclohexylidene)hydrazinyl]carbonyl}-3-phenyl-1H-indole-5-sulfonamide] | 8940 | 419 | 139 | > 10000 | 
CCC1CCC(=NNC(=O)c2[nH]c3ccc(S(N)(=O)=O)cc3c2-c2ccccc2)CC1 (stereo not drawn) [compound 19, 2-{[2-(4-Ethylcyclohexylidene)hydrazinyl]carbonyl}-3-phenyl-1H-indole-5-sulfonamide] | 1280 | 475 | 220 | > 10000 | 
CCCC1CCC(=NNC(=O)c2[nH]c3ccc(S(N)(=O)=O)cc3c2-c2ccccc2)CC1 (stereo not drawn) [compound 20, 2-{[2-(4-Propylcyclohexylidene)hydrazinyl]carbonyl}-3-phenyl-1H-indole-5-sulfonamide] | 796 | 348 | 154 | > 10000 | 
NS(=O)(=O)c1ccc2[nH]c(C(=O)NN=C3CCC(c4ccccc4)CC3)c(-c3ccccc3)c2c1 (stereo not drawn) [compound 21, 2-{[2-(4-Phenylcyclohexylidene)hydrazinyl]carbonyl}-3-phenyl-1H-indole-5-sulfonamide] | 831 | 32.3 | 14.8 | > 10000 | 
CC(C)(C)C1CCC(=NNC(=O)c2[nH]c3ccc(S(N)(=O)=O)cc3c2-c2ccccc2)CC1 (stereo not drawn) [compound 22, 2-{[2-(4-tert-buthylcyclohexylidene)hydrazinyl]carbonyl}-3-phenyl-1H-indole-5-sulfonamide] | 3380 | 17.4 | 26.6 | > 10000 | 
CN1CCC(=NNC(=O)c2[nH]c3ccc(S(N)(=O)=O)cc3c2-c2ccccc2)CC1 [compound 23, 2-{[2-(1-Methylpiperidine-4-ylidene)hydrazinyl]carbonyl}-3-phenyl-1H-indole-5-sulfonamide] | 309 | 9.2 | 62.9 | > 10000 | 
NS(=O)(=O)c1ccc2[nH]c(C(=O)NN=C3CCN(Cc4ccccc4)CC3)c(-c3ccccc3)c2c1 [compound 24, 2-{[2-(1-Benzylpiperidine-4-ylidene)hydrazinyl]carbonyl}-3-phenyl-1H-indole-5-sulfonamide] | 372 | 11.7 | 9.4 | 7380 | 
